Experimental data from patent US10800807B2, “TGR5 modulators and methods of use thereof” (Intercept Pharmaceuticals, Inc., priority 2015, dated 2020).
Where a chain is given by its changes, count along the chain named. ≈ marks a conversion by molar mass, not a printed value. Read-outs that look alike come from different tables or passages of the source.

Legend:
[1] = molecular target: T1, mouse glutathione transferase-tagged FXR-LBD (Mus musculus, UniProt Q60641); experiment: FXR AlphaScreen coactivator recruitment assay (mouse); type: biochemical; details: mouse FXR-LBD, value in parentheses; for EC50: read-out: (mFXR) EC50; for Emax: read-out: (mFXR) Efficacy
T1 construct: mouse glutathione transferase-tagged FXR-LBD (generated in-house); made in house
T1 sequence (Q60641 264-488 limits assumed): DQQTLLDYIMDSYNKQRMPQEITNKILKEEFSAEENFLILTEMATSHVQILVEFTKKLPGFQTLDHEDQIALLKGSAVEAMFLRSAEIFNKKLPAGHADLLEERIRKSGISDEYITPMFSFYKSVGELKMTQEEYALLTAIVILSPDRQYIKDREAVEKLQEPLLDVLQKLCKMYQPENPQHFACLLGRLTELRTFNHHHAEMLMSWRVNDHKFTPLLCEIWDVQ
Experimental: (§1) Activation of the FXR receptor was determined using a recruitment coactivator assay, namely AlphaScreen technology. The assays were performed using human glutathione transferase-tagged FXR-LBD (Life Technologies, USA) and mouse glutathione transferase-tagged FXR-LBD (generated in-house). Briefly, assays were conducted in white, low-volume, 384-well OptiPlate using a final volume of 25 μL containing 10 nM glutathione transferase-tagged FXR-LBD protein and 30 nM biotinylated Src-1 peptide. The stimulation was carried out with different BA concentrations for 30 minutes at 25° C. […] Dose-response curves were performed in triplicate and Z′ factor was used to validate the robustness of the assay.

TGR5 [2] = molecular target: T2, TGR5 (Homo sapiens, UniProt Q8TDU6); experiment: TGR5 activity: cAMP in hTGR5 CHO-k1 cells; type: cell-based; design: expressed in transfected cells; host or cells: CHO-k1; details: for Emax: 0.5 h, read-out: hTGR5 CHO Efficacy; for EC50: cAMP
T2 sequence (Q8TDU6 1-330): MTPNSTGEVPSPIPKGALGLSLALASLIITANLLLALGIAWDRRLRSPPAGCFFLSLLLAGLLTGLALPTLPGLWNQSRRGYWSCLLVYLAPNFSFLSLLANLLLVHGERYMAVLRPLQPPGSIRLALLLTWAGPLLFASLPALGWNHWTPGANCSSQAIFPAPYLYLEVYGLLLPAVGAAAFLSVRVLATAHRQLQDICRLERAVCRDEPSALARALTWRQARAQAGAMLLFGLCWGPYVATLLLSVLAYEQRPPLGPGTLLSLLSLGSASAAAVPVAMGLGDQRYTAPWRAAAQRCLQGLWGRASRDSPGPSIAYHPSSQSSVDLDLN

mTGR5 = molecular target: T3, mTGR5 (Mus musculus, UniProt Q80SS6); experiment: TGR5 activity: cAMP in mTGR5 CHO-Pi10 clone 4 cells; type: cell-based; details: for Emax: 0.5 h, read-out: (mTGR5 CHO) Efficacy
T3 construct: expressed in transfected cells; host or cells: CHO-Pi10 clone 4
T3 sequence (Q80SS6 1-329): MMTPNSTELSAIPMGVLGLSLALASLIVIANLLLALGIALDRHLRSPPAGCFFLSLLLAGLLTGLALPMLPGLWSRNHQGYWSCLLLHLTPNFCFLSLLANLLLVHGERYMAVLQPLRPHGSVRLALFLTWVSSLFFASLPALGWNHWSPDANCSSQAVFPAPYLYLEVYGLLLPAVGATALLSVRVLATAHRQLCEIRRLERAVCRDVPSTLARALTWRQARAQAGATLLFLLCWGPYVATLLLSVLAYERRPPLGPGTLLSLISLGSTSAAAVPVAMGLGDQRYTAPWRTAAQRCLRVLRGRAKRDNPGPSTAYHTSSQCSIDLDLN

[3] = Critical micellar concentration (surface tension / dye solubilization); type: physicochemical; details: for CMC: BA sodium salts in 0.1 M NaCl, 25° C.; for STCMC: surface tension at CMC
Experimental: In the first method, the surface tension was performed by maximum bubble-pressure method using a Sensadyne 6000 tensiometer (Chem-Dyne Research Corp., Milwaukee, Wis.). The surface tension of aqueous solutions at various concentrations (range 0.1-100 mM) of the BA sodium salts in 0.1 M NaCl was measured at 25° C. The surface tension values were plotted against the logarithm of the bile salt concentration; the regression lines corresponding to the two parts of the curve (monomeric and micellar phases) were calculated using the method of least squares. The critical micellar concentration (CMC) value (mM) was obtained by the intersection of the two lines.
The second method is based on the fact that some dyes, specifically Orange OT ([…]), are almost insoluble in water but dissolve in solutions with micellar aggregates that incorporate them; thus, the intensity of color of the solution increases with bile salt concentration (after CMC achievement). The amount of dye solubilized in relation to bile salt concentration was determined spectrophotometrically.
For each bile acid, various solution at different concentrations, between 50 mM and 0.1 mM with appropriate dilutions, were incubated under stirring at room temperature for 3 days with an excess of Orange OT. Then all the solutions were centrifuged and filtered through a 0.22 μm Millipore fiiter (Millipore Corp., Bedford, Mass.).

[4] = Lipophilicity, 1-octanol/water partition coefficient (shake-flask); type: physicochemical; details: pH 8.00, ionized BA
Experimental: The experiments were carried out on 1 mM initial bile salt solution buffered at pH 8.00 with 0.1 M potassium phosphate buffer to ensure complete ionization of the BA. BA concentration in the water phase before and after partition in 1-octanol was measured by HPLC-ESMS/MS as reported below.

[5] = Critical micellar concentration (surface tension / dye solubilization); type: physicochemical
bovine serum albumin = bovine serum albumin (Bos taurus, UniProt P02769); experiment: Albumin binding by equilibrium dialysis; type: in vitro ADME; details: 5% bovine serum albumin saline solution, 25° C.
bovine serum albumin, sequence (P02769 25-607): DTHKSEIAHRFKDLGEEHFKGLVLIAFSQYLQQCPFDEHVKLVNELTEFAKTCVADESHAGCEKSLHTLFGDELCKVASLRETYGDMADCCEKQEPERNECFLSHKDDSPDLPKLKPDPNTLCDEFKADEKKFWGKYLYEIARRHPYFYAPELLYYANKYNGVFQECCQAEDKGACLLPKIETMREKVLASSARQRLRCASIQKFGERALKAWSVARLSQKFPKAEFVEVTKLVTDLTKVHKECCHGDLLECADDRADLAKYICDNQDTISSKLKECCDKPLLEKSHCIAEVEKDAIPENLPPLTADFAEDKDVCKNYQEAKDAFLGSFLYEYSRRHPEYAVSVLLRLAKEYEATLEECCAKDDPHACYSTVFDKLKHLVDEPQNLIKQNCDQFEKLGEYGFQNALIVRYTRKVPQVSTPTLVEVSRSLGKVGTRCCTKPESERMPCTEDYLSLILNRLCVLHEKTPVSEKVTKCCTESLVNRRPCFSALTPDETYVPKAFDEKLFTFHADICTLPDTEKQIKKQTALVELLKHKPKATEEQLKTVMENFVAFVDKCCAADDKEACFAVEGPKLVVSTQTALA
Experimental: BA was dissolved at a concentration of […] in 5% bovine serum albumin saline solution and left to stand for 24 hours at 25° C. Two milliliters of this solution was dialyzed in cellulose sacs with a molecular weight cut-off of 12-14 kDa (Spectra/Por; Spectrum Medical Industries Inc., Rancho Dominguez, Calif.) against 25 ml of saline solution. The system was equilibrated by mechanical shaking for 72 hours at 25° C. BA concentrations in the starting solution and in the dialyzed solution were determined by HPLC-ES-MS/MS as reported below.

TGR5 [6] = molecular target: T2, TGR5; experiment: TGR5 activity: intracellular cAMP levels, NCI-H716 cells (HTR-FRET); type: cell-based; design: endogenous in cells; host or cells: NCI-H716; details: for Emax: read-out: TGR5 (NCI-H716) Efficacy; for EC50: cAMP
Experimental: Activation of TGR5 was assessed by measuring the level of cAMP using an HTR-FRET assay. Thus, NCI-H716 cells were cultured on 96-well plates coated with Matrigel (Corning, USA) (0.75 mg/ml) in DMEM supplemented with 10% FCS, 100 units/ml penicillin, and 100 μg/ml streptomycin sulphate. […] The level of intracellular cAMP was determined with Lance kit. Z′ factor was used to validate assays.

Water solubility = type: physicochemical; details: 0.1 M HCl, pH 1.00, 25° C., read-out: Ws
Experimental: BA were suspended in 100 ml of 0.1 M HCl, pH 1.00, and the saturated solutions were transferred to a thermostat-equipped water bath maintained at 25° C. After incubation for 1 week, the solutions were filtered on a Millipore filter ([…]), and the concentration of BA was measured by HPLC-ESMS/MS as reported below.

[7] = molecular target: T4, human glutathione transferase-tagged FXR-LBD (Homo sapiens, UniProt Q96RI1); experiment: FXR AlphaScreen coactivator recruitment assay (human); type: biochemical; design: Emax: dose or concentration left out as unconfirmed; details: for EC50: human FXR-LBD, AlphaScreen, read-out: hFXR EC50; for Emax: read-out: hFXR Efficacy;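 as to hFXR Efficacy: CDCA at 50 µM taken as 100%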
T4 construct: human glutathione transferase-tagged FXR-LBD (Life Technologies, USA); purchased Life Technologies, USA
T4 sequence (Q96RI1 262-486 limits assumed): T1 sequence (Q60641 264-488 limits assumed) with D7H, Y8F, S46N, I50V, A95S, A98S, K107N, V125I, M174I, Y175H
Experimental: as §1

[8] = mTGR5 CHO cells, value in parentheses
[9] = simulated gastric fluid, thermodynamic from solid
[10] = hTGR5 CHO cells, Ref. LCA 100% at 10 μM
[11] = 1 h, NCI-H716 cells, Ref. LCA 100% at 10 μM

Row | STCMC [3] [Dyne/cm] | solubility thermodynamic at 1 week (Water solubility) [µM] | Compound | EC50 [1] [µM] | EC50 (TGR5 [2]; hTGR5 CHO cells) [µM] | EC50 (mTGR5; [8]) [µM] | CMC [3] [mM] | LogPA− [4] | CMpH [5] | Albumin binding (%) (bovine serum albumin) | pKa (pKa) | EC50 (TGR5 [6]; NCI-H716 cells) [µM] | solubility thermodynamic at 1 week (Water solubility; [9]) [µM] | EC50 [7] [µM] | Emax [7] [%] | also measured
1 |  |  | CC[C@H]1[C@@H](O)C2C3CC[C@H]([C@H](C)C[C@@H](CO)C(=O)O)[C@@]3(C)[C@@H](O)CC2[C@@]2(C)CC[C@@H](O)C[C@@H]12 (stereo partly drawn) [Compound 4, 3α,7α,12α-Trihydroxy-6α-ethyl-23(A)-hydroxymethyl-5β-cholan-24-oic acid] | > 150 | 4.65 ± 0.5 | 1.3 | 5 | −0.2 | 4.5 | 55 | 4.36 | 7.5 ± 5 | 3200 (≈ 1490 µg/mL) | 80 ± 30 | 20 ± 2 | Emax (TGR5 [2]; CHO): 99 ± 1.4%; Emax (mTGR5; CHO): 102%; Emax (TGR5 [6]; NCI-H716, 1 h): 77 ± 10%
2 |  |  | CC[C@H]1[C@@H](O)[C@@H]2[C@H](C[C@H](O)[C@]3(C)[C@@H]([C@H](C)C[C@H](F)C(=O)O)CC[C@@H]23)[C@@]2(C)CC[C@@H](O)C[C@@H]12 [Compound 8, 3α,7α,12α-Trihydroxy-6α-ethyl-23(S)-fluoro-5β-cholan-24-oate] | 59.5 | 0.5 ± 0.1 | 0.78 | 6 | 0.01 | 3.6 | 84 | 2.82 | 7 ± 3 | 971 (≈ 441 µg/mL) | 5.6 ± 1 | 113 ± 3 | Emax [1]: 47%; Emax (TGR5 [2]; [10]): 103 ± 2%; Emax (mTGR5; [8]): 100%; Emax (TGR5 [6]; [11]): 97 ± 1.7%
3 |  |  | CC[C@H]1[C@@H](O)[C@@H]2[C@H](C[C@H](O)[C@]3(C)[C@@H]([C@H](C)C[C@@H](F)C(=O)O)CC[C@@H]23)[C@@]2(C)CC[C@@H](O)C[C@@H]12 [Compound 9, 3α,7α,12α-Trihydroxy-6α-ethyl-23(R)-fluoro-5β-cholan-24-oate] | 55 | 1.4 ± 0.3 | 1.8 | 6 | 0.2 | 3.9 | 89 | 2.82 | 22 ± 3 | 469 (≈ 213 µg/mL) | 2.9 ± 0.9 | 147 ± 20 | Emax [1]: 127%; Emax (TGR5 [2]; [10]): 98 ± 2%; Emax (mTGR5; [8]): 90%; Emax (TGR5 [6]; [11]): 75 ± 6%
4 | 48.8 | 32 (≈ 14.9 µg/mL) | C[C@H](CCC(=O)NCC(=O)O)[C@H]1CC[C@H]2[C@@H]3[C@H](O)C[C@@H]4C[C@H](O)CC[C@]4(C)[C@H]3C[C@H](O)[C@]12C [GCA, reference compound] |  |  |  | 8 | −0.4 | 6.3 | 65 | 3.9 |  |  |  |  | 
5 |  | 23 (≈ 8.71 µg/mL) | C[C@H](CC(=O)O)[C@H]1CC[C@H]2[C@@H]3[C@H](O)C[C@@H]4C[C@H](O)CC[C@]4(C)[C@H]3CC[C@]12C [Nor-CDCA, 24-nor-CDCA, reference compound] |  |  |  | 20 | 0.5 | 7.9 | 95 | 5 |  |  |  |  | 
6 | 48.8 |  | CC[C@H]1[C@@H](O)C2C3CC[C@H]([C@H](C)CCC(=O)O)[C@@]3(C)CCC2[C@@]2(C)CC[C@@H](O)C[C@@H]12 (some centres unmarked) [Ref. Cmpd. B, reference compound] |  |  |  | 2.9 | 2.5 | 7.2 | 96 | 5 |  | 9 (≈ 3.79 µg/mL) |  |  | 

Row | Compound | STCMC [3] [Dyne/cm] | solubility thermodynamic at 1 week (Water solubility) [µM] | EC50 [1] [µM] | EC50 (TGR5 [2]; hTGR5 CHO cells) [µM] | EC50 (mTGR5; [8]) [µM] | CMC [3] [mM] | LogPA− [4] | CMpH [5] | Albumin binding (%) (bovine serum albumin) | pKa (pKa) | EC50 (TGR5 [6]; NCI-H716 cells) [µM] | solubility thermodynamic at 1 week (Water solubility; [9]) [µM] | EC50 [7] [µM] | Emax [7] [%] | also measured
7 | C[C@H](CCC(=O)NCC(=O)O)[C@H]1CC[C@H]2[C@@H]3[C@H](O)C[C@@H]4C[C@H](O)CC[C@]4(C)[C@H]3CC[C@]12C [GCDCA, reference compound] | 45.2 | 7 (≈ 3.15 µg/mL) |  |  |  | 2 | 0.4 | 6.4 | 85 | 3.9 |  |  |  |  | 
